Measurements: patent publication US10294248B2, “Beta-lactamase inhibitors” (VenatoRx Pharmaceuticals, Inc., priority 2013, dated 2019)

Tests used:
[1] = molecular target: T1, SHV-5 β-lactamase (Class A ESBL) (Klebsiella pneumoniae, UniProt P0A3M1); assay: β-Lactamase inhibition, SHV-5; type: biochemical
T1 construct: made in house; host or cells: E. coli BL21(DE3)
In short: (§1)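 Untagged enzyme from E. coli BL21(DE3), purified by Capto S then Superdex 75; 15 min 37 °C preincubation with inhibitor; KPC-2 read with imipenem at 300 nm, SHV-5 with cefotaxime at 260 nm, OXA-1 with nitrocefin 100 μM final at 486 nm; 10 min kinetic read; IC50 vs uninhibited wells.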

[2] = molecular target: T2, p99 AmpC β-lactamase (Class C) (Enterobacter cloacae, UniProt P05364); assay: β-Lactamase inhibition, p99 AmpC; type: biochemical
T2 construct: made in house; host or cells: E. coli BL21(DE3)
T2 sequence (P05364 21-381): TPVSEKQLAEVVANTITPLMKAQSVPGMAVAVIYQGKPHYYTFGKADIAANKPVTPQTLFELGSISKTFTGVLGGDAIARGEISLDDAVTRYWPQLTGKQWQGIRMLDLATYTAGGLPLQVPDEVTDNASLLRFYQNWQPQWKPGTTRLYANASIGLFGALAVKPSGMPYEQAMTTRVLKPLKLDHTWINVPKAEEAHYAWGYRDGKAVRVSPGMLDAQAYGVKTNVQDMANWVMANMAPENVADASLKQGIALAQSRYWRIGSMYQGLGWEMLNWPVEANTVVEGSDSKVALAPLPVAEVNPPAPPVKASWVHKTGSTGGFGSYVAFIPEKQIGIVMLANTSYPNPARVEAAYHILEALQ

[3] = tested on: K. pneumoniae 156319 expressing KPC-3; assay: Broth microdilution MIC, K. pneumoniae 156319 KPC-3; type: cell-based; details: fixed 4 μg/mL meropenem; CAMHB, 16-20 hours at 37° C.
In short: (§2)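 Following CLSI broth microdilution, β-lactamase-producing strains grown 3–5 h were exposed in CAMHB to 2-fold dilutions of test compound (32 to 0.25 μg/mL final). A static 4 μg/mL β-lactam overlay was added. After 16–20 h at 37° C, MIC was scored by eye.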

[4] = tested on: K. pneumoniae A-1797 expressing KPC-2 and VIM-4; assay: Broth microdilution MIC, K. pneumoniae A-1797 KPC-2/VIM-4; type: cell-based; details: fixed 4 μg/mL meropenem; CAMHB, 16-20 hours at 37° C.
In short: as §2

[5] = molecular target: T3, KPC-2 β-lactamase (Class A carbapenemase) (Klebsiella pneumoniae, UniProt Q9F663); assay: β-Lactamase inhibition, KPC-2; type: biochemical; details: imipenem substrate, 300 nm; 15 min preincubation at 37° C., PBS pH 7.4
T3 construct: made in house; host or cells: E. coli BL21(DE3)
T3 sequence (Q9F663 25-293, looked up): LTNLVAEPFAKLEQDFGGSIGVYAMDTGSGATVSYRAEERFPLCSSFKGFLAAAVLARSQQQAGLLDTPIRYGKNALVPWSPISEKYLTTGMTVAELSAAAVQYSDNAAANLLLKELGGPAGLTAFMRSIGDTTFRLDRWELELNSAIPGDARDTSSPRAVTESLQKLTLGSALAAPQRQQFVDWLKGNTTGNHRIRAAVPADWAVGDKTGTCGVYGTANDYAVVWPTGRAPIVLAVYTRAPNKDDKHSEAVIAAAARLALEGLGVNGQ
In short: as §1

[6] = tested on: E. cloacae 144200 expressing Class C P99 AmpC; assay: Broth microdilution MIC, E. cloacae 144200 p99 AmpC; type: cell-based; details: fixed 4 μg/mL ceftazidime; CAMHB, 16-20 hours at 37° C.
In short: as §2

[7] = molecular target: T4, OXA-1 β-lactamase (Class D oxacillinase) (Escherichia coli, UniProt P13661); assay: β-Lactamase inhibition, OXA-1; type: biochemical; details: nitrocefin 100 μM, 486 nm; 15 min preincubation at 37° C., PBS pH 7.4
T4 construct: made in house; host or cells: E. coli BL21(DE3)
T4 sequence (P13661 26-276): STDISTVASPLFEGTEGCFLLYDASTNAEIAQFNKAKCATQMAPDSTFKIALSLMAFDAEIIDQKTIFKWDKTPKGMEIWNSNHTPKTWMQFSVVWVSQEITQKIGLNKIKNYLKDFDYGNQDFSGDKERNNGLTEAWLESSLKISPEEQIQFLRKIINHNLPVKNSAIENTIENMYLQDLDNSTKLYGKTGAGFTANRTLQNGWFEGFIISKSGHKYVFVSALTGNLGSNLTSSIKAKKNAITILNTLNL
In short: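 Compounds are mixed with purified, untagged recombinant β-lactamase and held 15 min at 37 °C. Substrate is then added: nitrocefin (100 μM final) for OXA-1, imipenem for KPC-2, cefotaxime for SHV-5. Absorbance is followed immediately, and percent inhibition per concentration gives the IC50.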

[8] = tested on: P. aeruginosa Ps296 expressing VIM-2; assay: Broth microdilution MIC, P. aeruginosa Ps296 VIM-2; type: cell-based; details: fixed 4 μg/mL meropenem; CAMHB, 16-20 hours at 37° C.
In short: as §2

[9] = tested on: S. aureus MSSA-7 producing penicillinase PC-1; assay: Broth microdilution MIC, S. aureus MSSA-7 PC-1; type: cell-based; details: fixed 4 μg/mL piperacillin; CAMHB, 16-20 hours at 37° C.
In short: as §2

[10] = tested on: E. coli ESBL4 expressing CTX-M-15; assay: Broth microdilution MIC, E. coli ESBL4 CTX-M-15; type: cell-based; details: fixed 4 μg/mL ceftazidime; CAMHB, 16-20 hours at 37° C.
In short: as §2

[11] = molecular target: T5, VIM-2 metallo-β-lactamase (Class B) (Pseudomonas aeruginosa, UniProt Q9K2N0); assay: β-Lactamase inhibition, VIM-2; type: biochemical; details: nitrocefin 100 μM, 486 nm; 15 min preincubation at 37° C., PBS pH 7.4
T5 construct: made in house; host or cells: E. coli BL21(DE3)
In short: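 Nitrocefin hydrolysis (100 μM final, A486 read for 10 min) by purified VIM-2 after a 15-min, 37° C enzyme–inhibitor preincubation. IC50 is the concentration halving initial hydrolysis rate, derived from percent inhibition against no-inhibitor wells.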

T1 sequence (P0A3M1 22-286): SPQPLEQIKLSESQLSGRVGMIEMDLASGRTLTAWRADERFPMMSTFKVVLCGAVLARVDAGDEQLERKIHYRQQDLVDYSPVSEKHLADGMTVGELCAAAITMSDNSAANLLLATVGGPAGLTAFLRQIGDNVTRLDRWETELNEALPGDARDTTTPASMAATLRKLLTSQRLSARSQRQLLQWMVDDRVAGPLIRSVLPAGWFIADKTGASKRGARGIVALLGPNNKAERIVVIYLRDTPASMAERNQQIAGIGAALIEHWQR

Row | Compound | IC50 [1] [µM] | IC50 [2] [µM] | MIC of example compound in presence of fixed β-lactam: Fixed Mero, K. P. 156319 KPC-3 [3] | MIC of example compound in presence of fixed β-lactam: Fixed Mero, K. P. A-1797 KPC-2 VIM-4 [4] | IC50 [5] [µM] | MIC of example compound in presence of fixed β-lactam: Fixed CAZ, E. cl. 144200 p99 AmpC [6] | IC50 [7] [µM] | MIC of example compound in presence of fixed β-lactam: Fixed Mero, P. aerug. Ps296 VIM-2 [8] | MIC of example compound in presence of fixed β-lactam: Fixed Pip, S. aureus MSSA-7 PC-1 [9] | MIC of example compound in presence of fixed β-lactam: Fixed CAZ, E. coli ESBL4 CTX-M-15 [10] | IC50 [11] [µM]
1 | O=C(O)CN1CCN(CC(=O)N[C@H]2Cc3cccc(C(=O)O)c3OB2O)CC1 [Example 25, 3-[2-(4-Carboxymethyl-piperazin-1-yl)-acetylamino]-2-hydroxy-3,4-dihydro-2H-benzo[e][1,2]oxaborinine-8-carboxylic acid] | < 0.1 | < 0.1 | B (the MIC in the presence of between 8 and 32 μg/mL of a β-lactamase inhibitor) | B (the MIC in the presence of between 8 and 32 μg/mL of a β-lactamase inhibitor) | 0.1 to 1 | C (the MIC in the presence of <4 μg/mL of a β-lactamase inhibitor) | < 0.1 | B (the MIC in the presence of between 8 and 32 μg/mL of a β-lactamase inhibitor) | C (the MIC in the presence of <4 μg/mL of a β-lactamase inhibitor) | C (the MIC in the presence of <4 μg/mL of a β-lactamase inhibitor) | 10 to 100
2 | NC1CN(CC(=O)N[C@H]2Cc3cccc(C(=O)O)c3OB2O)CCC1O (stereo partly drawn) [Example 26, 3-[2-(3-Amino-4-hydroxy-piperidin-1-yl)-acetylamino]-2-hydroxy-3,4-dihydro-2H-benzo[e][1,2]oxaborinine-8-carboxylic acid] | 0.1 to 1 | < 0.1 | C (the MIC in the presence of <4 μg/mL of a β-lactamase inhibitor) | C (the MIC in the presence of <4 μg/mL of a β-lactamase inhibitor) | 0.1 to 1 | C (the MIC in the presence of <4 μg/mL of a β-lactamase inhibitor) | 0.1 to 1 | C (the MIC in the presence of <4 μg/mL of a β-lactamase inhibitor) | A (an MIC of the fixed β-lactam antibiotic in the presence of >32 μg/mL of a β-lactamase inhibitor) | C (the MIC in the presence of <4 μg/mL of a β-lactamase inhibitor) | 10 to 100
3 | NCCC(=O)NC1CCN(CC(=O)N[C@H]2Cc3cccc(C(=O)O)c3OB2O)CC1 [Example 27, 3-{2-[4-(3-Amino-propionylamino)-piperidin-1-yl]-acetylamino}-2-hydroxy-3,4-dihydro-2H-benzo[e][1,2]oxaborinine-8-carboxylic acid] | 0.1 to 1 | < 0.1 | B (the MIC in the presence of between 8 and 32 μg/mL of a β-lactamase inhibitor) | B (the MIC in the presence of between 8 and 32 μg/mL of a β-lactamase inhibitor) | 0.1 to 1 | B (the MIC in the presence of between 8 and 32 μg/mL of a β-lactamase inhibitor) | 0.1 to 1 | B (the MIC in the presence of between 8 and 32 μg/mL of a β-lactamase inhibitor) | A (an MIC of the fixed β-lactam antibiotic in the presence of >32 μg/mL of a β-lactamase inhibitor) | C (the MIC in the presence of <4 μg/mL of a β-lactamase inhibitor) | 10 to 100
4 | NC1CCN(CC(=O)N[C@H]2Cc3cccc(C(=O)O)c3OB2O)CC1N (stereo partly drawn) [Example 28, 3-[2-(3,4-Diamino-piperidin-1-yl)-acetylamino]-2-hydroxy-3,4-dihydro-2H-benzo[e][1,2]oxaborinine-8-carboxylic acid] | 10 to 100 | < 0.1 | C (the MIC in the presence of <4 μg/mL of a β-lactamase inhibitor) | B (the MIC in the presence of between 8 and 32 μg/mL of a β-lactamase inhibitor) | < 0.1 | C (the MIC in the presence of <4 μg/mL of a β-lactamase inhibitor) | < 0.1 | C (the MIC in the presence of <4 μg/mL of a β-lactamase inhibitor) | C (the MIC in the presence of <4 μg/mL of a β-lactamase inhibitor) | C (the MIC in the presence of <4 μg/mL of a β-lactamase inhibitor) | 10 to 100
5 | NCC1CN(CC(=O)N[C@H]2Cc3cccc(C(=O)O)c3OB2O)CCC1N (stereo partly drawn) [Example 29, 3-[2-(4-Amino-3-aminomethyl-piperidin-1-yl)-acetylamino]-2-hydroxy-3,4-dihydro-2H-benzo[e][1,2]oxaborinine-8-carboxylic acid] | 1 to 10 | 0.1 to 1 | C (the MIC in the presence of <4 μg/mL of a β-lactamase inhibitor) | B (the MIC in the presence of between 8 and 32 μg/mL of a β-lactamase inhibitor) | 0.1 to 1 | C (the MIC in the presence of <4 μg/mL of a β-lactamase inhibitor) | 0.1 to 1 | C (the MIC in the presence of <4 μg/mL of a β-lactamase inhibitor) | C (the MIC in the presence of <4 μg/mL of a β-lactamase inhibitor) | C (the MIC in the presence of <4 μg/mL of a β-lactamase inhibitor) | 10 to 100
6 | NCCNC1CCN(CC(=O)N[C@H]2Cc3cccc(C(=O)O)c3OB2O)CC1 [Example 30, 3-{2-[4-(2-Amino-ethylamino)-piperidin-1-yl]-acetylamino}-2-hydroxy-3,4-dihydro-2H-benzo[e][1,2]oxaborinine-8-carboxylic acid] | < 0.1 | < 0.1 | C (the MIC in the presence of <4 μg/mL of a β-lactamase inhibitor) | A (an MIC of the fixed β-lactam antibiotic in the presence of >32 μg/mL of a β-lactamase inhibitor) | < 0.1 | C (the MIC in the presence of <4 μg/mL of a β-lactamase inhibitor) | < 0.1 | B (the MIC in the presence of between 8 and 32 μg/mL of a β-lactamase inhibitor) | A (an MIC of the fixed β-lactam antibiotic in the presence of >32 μg/mL of a β-lactamase inhibitor) | C (the MIC in the presence of <4 μg/mL of a β-lactamase inhibitor) | 1 to 10
